Experimental data: patent publication US20230067159A1, “ROR-GAMMA-T INHIBITOR, PREPARATION METHOD THEREOF AND USE THEREOF” (priority 2020, published 2023)

Target: T1, RORγ (Homo sapiens, UniProt P51449)
T1 construct: The concentration of B-RORγ LBD was 40 nM
T1 sequence (P51449 269-508 limits assumed): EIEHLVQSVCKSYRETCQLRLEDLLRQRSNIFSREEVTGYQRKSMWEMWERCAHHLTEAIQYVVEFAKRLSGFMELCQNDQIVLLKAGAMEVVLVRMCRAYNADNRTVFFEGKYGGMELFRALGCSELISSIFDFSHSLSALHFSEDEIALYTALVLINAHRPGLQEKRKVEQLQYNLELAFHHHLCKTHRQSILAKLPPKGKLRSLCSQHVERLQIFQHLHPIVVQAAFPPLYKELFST
Experiment: Fluorescence resonance energy transfer (FRET) test, B-RORγ LBD / Biotin-SRC1
Type: biochemical
Description: Biological Example 1 Fluorescence Resonance Energy Transfer (FRET) Test
(1) Preparation of RORγ Test Buffer and 10 mM of DTT
100 mL of 1× Basic test buffer (HEPES (pH 7.4), 100 mM NaCl, 0.01% BSA) was prepared, and 154.25 mg of DTT was added. The mixture was well mixed.
(2) Preparation of Compound with Gradient Concentration
a. Standard compound was prepared: Standard compound was diluted with 100% DMSO to 2.5 mM, then diluted 3-fold with 11 serial dilutions to a final concentration of […];
b. Test compound was prepared referring to the standard compound.
(3) Preparation of 1× Protein Solution Mixture
(§1) a. Preparation of the desired amount of 2× B-RORγ LBD/SA-APC protein mixture: The concentration of B-RORγ LBD was 40 nM, and the concentration of SA-APC was 20 nM. They were mixed by gently inversion, and incubated at room temperature for 15 minutes. Then 400 nM of biotin was added. The mixture was mixed by gently inversion, and incubated at room temperature for 10 minutes;
as §1, with “b.” for “a.”, “Biotin-SRC1/SA-eu” for “B-RORγ LBD/SA-APC”, “Bioin-SRC1” for “B-RORγ LBD”, “SA-eu” for “SA-APC”, “200” for “400”
c. The protein mixtures prepared in step a and step b were mixed at a ratio of 1:1, and incubated at room temperature for 5 minutes;
d. 25 μL of the mixture from step c was added to the 384-well plate containing the test compound;
e. The mixture was centrifuged at 1000 rpm for one minute;
f. The mixture was incubated for 1 hour at room temperature.
(4) Data Collection and Calculation
After incubation at room temperature for 1 hour, the fluorescence values at 665 nm and 615 nm were measured with an EnVision plate reader, and the inhibition rate was calculated.
Inhibition rate %)=[(X−Min)/(Max−Min)]×100%
X is the fluorescence value ratio of “665/615” of the test compound; Min is the average value of “665/615” of the DMSO blank control; Max is the average value of “665/615” of the 10 μM SRC.

| SMILES | IC50 [µM] |
| --- | --- |
| CCS(=O)(=O)c1ccc([C@H](CO)NC(=O)c2cnc(N3CC[C@H](Oc4ccc(C(F)(F)F)cc4)C3)c(F)c2)cc1 [Example 81, N—((R)-1-(4-(ethylsulfonyl)phenyl)-2-hydroxyethyl)-5-fluoro-6-((S)-3-(4-(trifluoromethyl)phenoxy)pyrrolidin-1-yl)nicotinamide] | 0.078 |
| CCS(=O)(=O)c1ccc([C@H](CO)NC(=O)c2ccc(N3C[C@H](Oc4ccc(C(F)(F)F)cc4)C[C@H]3COC(F)F)cc2)nc1 [Example 68] | 0.0753 |
| CCS(=O)(=O)c1ccc(CNC(=O)c2cnc(N3C[C@@H](Oc4ccc(OC(F)(F)F)cn4)C[C@H]3COC(F)F)c(F)c2)cc1 [Example 111] | 0.005 |
| CCS(=O)(=O)c1ccc(CNC(=O)c2ccc(N3CC(Cc4ccc(C(F)(F)F)cc4)C[C@H]3COC)cc2)cc1 (stereo partly drawn) [Example 7, N-(4-(ethylsulfonyl)benzyl)-4-((2S)-2-(methoxymethyl)-4-(4-(trifluoromethyl)benzyl)pyrrolidin-1-yl)benzamide] | 0.0085 |
| CCS(=O)(=O)c1ccc([C@H](CO)NC(=O)c2ccc(N3C[C@H](Oc4ccc(C(F)(F)F)cc4)C[C@H]3COC(F)F)nc2)cc1 [Example 52] | 0.0499 |
| CCS(=O)(=O)c1ccc([C@H](CO)NC(=O)c2cnc(N3C[C@H](Oc4ccc(C(F)(F)F)cc4)C[C@H]3COCCF)nc2)cc1 [Example 59, N—((R)-1-(4-(ethylsulfonyl)phenyl)-2-hydroxyethyl)-2-((2S,4R)-2-((2-fluoroethoxy)methyl)-4-(4-(trifluoromethyl)phenoxy)pyrrolidin-1-yl)pyrimidine-5-carboxamide] | 0.028 |
| CCC(F)(F)OC[C@@H]1C[C@H](Oc2ccc(C(F)(F)F)cc2)CN1c1ccc(C(=O)N[C@@H](CO)c2ccc(S(=O)(=O)CC)cc2)cc1 [Example 45] | 0.017 |
| CCS(=O)(=O)c1ccc([C@H](CCOP(=O)(O)O)NC(=O)c2ccc(N3C[C@@H](Oc4ccc(OC(F)(F)F)cc4)C[C@H]3COC(F)F)cc2)cc1 [Example 125, sodium (S)-3-(4-((2S,4S)-2-((difluoromethoxy)methyl)-4-(4-(trifluoromethoxy)phenoxy)pyrrolidin-1-yl)benzamino)-3-(4-(ethylsulfonyl)phenyl)propyl phosphate] | 0.14 |
| CCOC[C@@H]1CC(Oc2ccc(C(F)(F)F)cc2)CN1c1ccc(C(=O)NCc2ccc(S(=O)(=O)CC)cc2)cc1 (stereo partly shown) [Example 19] | 0.0186 |
| CCCOC[C@@H]1C[C@@H](Oc2ccc(C(F)(F)F)cc2)CN1c1ccc(C(=O)N[C@@H](CO)c2ccc(S(=O)(=O)CC)cc2)cc1 [Example 27, N—((R)-1-(4-(ethylsulfonyl)phenyl)-2-hydroxyethyl)-4-((2S,4R)-2-(propoxymethyl)-4-(4-(trifluoromethyl)phenoxy)pyrrolidin-1-yl)benzamide] | 0.0208 |
| CCS(=O)(=O)c1ccc([C@H](CO)NC(=O)c2ccc(N3C[C@H](Oc4ccc(C(F)(F)F)cc4)C[C@H]3COC3CCOCC3)cc2)cc1 [Example 34, N—((R)-1-(4-(ethylsulfonyl)phenyl)-2-hydroxyethyl)-4-((2S,4R)-2-(((tetrahydro-2H-pyran-4-yl)oxy)methyl)-4-(4-(trifluoromethyl)phenoxy)pyrrolidin-1-yl)benzamide] | 0.133 |
| CCS(=O)(=O)c1ccc(CNC(=O)c2cnc(N3C[C@@H](Oc4ccc(Cl)cn4)C[C@H]3COC(F)F)c(F)c2)nc1 [Example 113, 6-((2S,4S)-4-((5-chloropyridin-2-yl)oxy)-2-((difluoromethoxy)methyl)pyrrolidin-1-yl)-N-((5-(ethylsulfonyl)pyridin-2-yl)methyl)-5-fluoronicotinamide] | 0.0062 |
| CCS(=O)(=O)c1ccc([C@H](CO)NC(=O)c2ccc(N3C[C@@H](Oc4ccc(C(F)(F)F)cc4)C[C@H]3COC(F)F)c(OC)c2)cc1 [Example 89] | 0.026 |
| CCS(=O)(=O)c1ccc(CNC(=O)c2ccc(N3C[C@@H](Oc4ccc(OC(F)(F)F)cn4)C[C@H]3COC(F)F)cc2)nc1 [Example 112] | 0.008 |
| CCS(=O)(=O)c1ccc([C@H](CO)NC(=O)c2ccc(N3C[C@H](Oc4ccc(C(F)(F)F)cc4)C[C@H]3COCC3CC3)nc2)cc1 [Example 50] | 0.052 |
| CCS(=O)(=O)c1ccc(CNC(=O)c2ccc(N3C[C@@H](Oc4ccc(OC(F)(F)F)cn4)C[C@H]3COC(F)F)cc2)cc1 [Example 107] | 0.078 |

| SMILES | IC50 [µM] |
| --- | --- |
| CCS(=O)(=O)c1ccc(CNC(=O)c2ccc(N3C[C@@H](Oc4ccc(OC(F)(F)F)cn4)C[C@H]3COC(F)F)nc2)cc1 [Example 110] | 0.011 |
| CCS(=O)(=O)c1ccc([C@H](CO)NC(=O)c2ccc(N3C[C@H](Oc4ccc(C(F)(F)F)cc4)C[C@H]3CF)cc2)cc1 [Example 24, N—((R)-1-(4-(ethylsulfonyl)phenyl)-2-hydroxyethyl)-4-((2S,4R)-2-(fluoromethyl)-4-(4-(trifluoromethyl)phenoxy)pyrrolidin-1-yl)benzamide] | 0.0328 |
| CCS(=O)(=O)c1ccc([C@H](CO)NC(=O)c2ccc(N3C[C@@H](Oc4ccc(C(F)(F)F)cc4)C[C@H]3COC(F)F)nc2)nc1 [Example 70] | 0.0076 |
| CCS(=O)(=O)c1ccc(CNC(=O)c2ccc(N3CCC(N(C)c4ccc(C(F)(F)F)cc4)C3)cc2)cc1 (stereo not shown) [Example 10, N-(4-(ethylsulfonyl)benzyl)-4-(3-(methyl(4-(trifluoromethyl)phenyl)amino)pyrrolidin-1-yl) benzamide] | 0.023 |
| CCC(F)(F)OC[C@@H]1C[C@H](Oc2ccc(C(F)(F)F)cc2)CN1c1ccc(C(=O)N[C@@H](CO)c2ccc(S(=O)(=O)CC)cn2)cc1 [Example 73] | 0.013 |
| [2H]C([2H])([2H])OC[C@@H]1C[C@H](Oc2ccc(C(F)(F)F)cc2)CN1c1ccc(C(=O)NCc2ccc(S(=O)(=O)CC)cc2)cc1 [Example 109, N-(4-(ethylsulfonyl)benzyl)-4-((2S,4S)-2-(3,3,3-d3-methoxymethyl)-4-(4-(trifluoromethyl)phenoxy)pyrrolidin-1-yl)benzamide] | 0.0064 |
| CCS(=O)(=O)c1ccc([C@H](CO)NC(=O)c2cnc(N3C[C@H](Oc4ccc(C(F)(F)F)cc4)C[C@H]3COCC3CC3)nc2)cc1 [Example 60] | 0.0338 |
| CCS(=O)(=O)c1ccc([C@H](CCO)NC(=O)c2ccc(N3CC(Oc4ccc(OC(F)(F)F)cc4)C[C@H]3COC(F)(F)F)cc2)cc1 (stereo in doubt) [Example 118, N—((S)-1-(4-(ethylsulfonyl)phenyl)-3-hydroxypropyl)-4-((2S,4S)-2-((trifluoromethoxy)methyl)-4-(4-(trifluoromethoxy)phenoxy)pyrrolidin-1-yl)benzamide] | 0.008 |
| CCS(=O)(=O)c1ccc([C@H](CCO)NC(=O)c2cnc(N3C[C@@H](Oc4ccc(OC(F)(F)F)cc4)C[C@H]3COC(F)F)c(F)c2)cc1 [Example 116] | 0.01 |
| CCS(=O)(=O)c1ccc([C@H](CO)NC(=O)c2cnc(N3C[C@H](Oc4ccc(C(F)(F)F)cc4)C[C@H]3COC(F)(F)F)nc2)cc1 [Example 95, N—((R)-1-(4-(ethylsulfonyl)phenyl)-2-hydroxyethyl)-2-((2S,4R)-2-((trifluoromethoxy)methyl)-4-(4-(trifluoromethyl)phenoxy)pyrrolidin-1-yl)pyrimidine-5-carboxamide] | 0.045 |
| CCS(=O)(=O)c1ccc([C@H](CO)NC(=O)c2cnc(N3C[C@@H](Oc4ccc(C(F)(F)F)cc4)C[C@H]3COC(F)F)nc2)nc1 [Example 71] | 0.0093 |
| CCS(=O)(=O)c1ccc([C@H](CO)NC(=O)c2ccc(N3C[C@H](Oc4ccc(C(F)(F)F)cc4)C[C@H]3COC)cc2)cc1 [Example 26, N—((R)-1-(4-(ethylsulfonyl)phenyl)-2-hydroxyethyl)-4-((2S,4R)-2-(methoxymethyl)-4-(4-(trifluoromethyl)phenoxy)pyrrolidin-1-yl)benzamide] | 0.01 |
| CCS(=O)(=O)c1ccc([C@H](CO)NC(=O)c2ccc(N3C[C@@H](Oc4ccc(C(F)(F)F)cc4)C[C@H]3COC(F)F)nc2)cc1 [Example 53] | 0.003 |
| CCCCOC[C@@H]1C[C@@H](Oc2ccc(C(F)(F)F)cc2)CN1c1ccc(C(=O)N[C@@H](CO)c2ccc(S(=O)(=O)CC)cc2)cc1 [Example 28] | 0.0133 |
| CCS(=O)(=O)c1ccc([C@H](CO)NC(=O)c2cnc(N3C[C@H](Oc4ccc(C(F)(F)F)cc4)C[C@H]3CCOC(F)F)nc2)cc1 [Example 63] | 0.048 |
